Where two headings read alike, the source gives them in different places. Residues, ends and D or L forms follow the SMILES beside them.
Key:
[1] = HPTS/DPX transport assay in zwitterionic EYPC vesicles; format: in vitro ADME; set-up: key to Et: Et = Ymax × (pEC50/ft); pEC50 = −log EC50; details: for Et transport efficiency: Et = Ymax × (pEC50/ft), ft = 19.8 so that WR7 equals 10.0, B12Br12^2− (40 μM) carrier, 5% error (SD) unless stated; for Ymax (%) maximal activity, transport of cargo / EC50: cargo concentration varied, B12Br12^2− (40 μM) as common carrier, EYPC⊃HPTS/DPX vesicles, pH 7.4, Hill analysis, 10% error (SD) unless stated, n.t. = no detectable transport; for Ymax (%) maximal activity, transport of cargo: 13 µM lipid, 10 mM Tris, 107 mM NaCl, HPTS fluorescence; for EC50: read-out: EC50 (μM) effective cargo concentration to reach 50% of Ymax
Description: The well-established HPTS/DPX assay, which uses 8-hydroxypyrene-1,3,6-trisulfonate (HPTS) and p-xylene-bis-pyridinium (DPX), was implemented to monitor peptide-transport activation (Fig. 2a). […] A surfactant (Triton X-100) was added at the end of the experiment (t = 600 s) to release all vesicle content and normalize the fluorescence intensity data.
Fig. 2 Carrier activity obtained from the HPTS/DPX assay. a, Schematic representation of the transport of otherwise impermeable analytes facilitated by superchaotropic cluster anions with encapsulated HPTS/DPX probe/quencher pair used for signalling. […] Concentrations of carrier and cargo, when fixed, were 40 and 20 µM, respectively, unless explicitly stated. Source data
A thin lipid film was prepared by evaporating a lipid solution with a stream of nitrogen and then dried in vacuo overnight.
Fluorescence intensities were normalized to fractional emission as I(t) = (It − I0)/(I∞ − I0), where I0 = It before cluster addition and I∞ = It after lysis.
In the activator measurements, in which different activators were tested with the same cargo, the activator efficiency (Ea) is determined from their ability to activate the transport of an impermeable cargo molecule and is characterized by Ymax, its maximal activity, and EC50, the effective activator concentration. A potent activator reaches high Ymax at low EC50. To reflect both factors, the activator efficiency is defined as Ea = Ymax × (pEC50/fa), where pEC50 is the negative logarithm of EC50.
In the transport measurements, in which different types of cargo were tested with the same activator, the transport efficiency (Et) reports on the sensitivity of the cargo for being transported and is described by Ymax, the maximal activity, and EC50, the effective cargo concentration. An easily accessible cargo reaches high Ymax at low EC50. The transport efficiency is defined as a composition of both parameters according to Et = Ymax × (pEC50/ft), where pEC50 is the negative logarithm of EC50.
Extended Data Fig. 3 Transport activity. a, Transport activity, Y, in EYPC⊃HPTS/DPX vesicles as a function of cluster concentration at constant cargo concentration (WR7, 20 µM). b, Transport activity, Y, for B12Br12^2− (40 µM) in EYPC⊃HPTS/DPX vesicles as a function of the concentration of different cargo types; red lines correspond to the resulting fit with the Hill equation. Source data

[2] = system: HeLa cells; experiment: MTT viability with MMAF in absence or presence of B12Br12^2−; format: cell-based; details: for mean_viability: cluster 0, mean of three technical replicates; for IC50: MMAF
Description: The incubation mixtures were replaced with DMEM + 10% FBS + 0.5 mg ml^–1 MTT. For the viability assays in the presence of B12Br12^2− or R8, HeLa, GT1-7, ARPE-19 and A549 cells were seeded the day before in 96-well plates at 6,000 cells per well. Cells were incubated with B12Br12^2− or R8 dissolved in HKR buffer for 3 h and, thereafter, incubated for 24 h with complete medium before incubating with complete medium and 0.5 mg ml^−1 MTT. For viability studies in the presence of MMAF, HeLa cells were incubated with MMAF and B12Br12^2− diluted in DMEM (without serum or antibiotics) for 3 h. Cells were washed with 0.1 mg ml^−1 heparin and further incubated for 21 h in complete medium and 2 h in complete medium containing 0.5 mg ml^−1 MTT. For all types of assays, after 2 h of incubation, the medium was carefully removed, and formazan crystals dissolved by addition of DMSO. The absorbance at 570 nm was measured with a plate reader (Tecan Infinite F200Pro) and the data normalized to the value of untreated cells (100% viability). Data were analysed with R (v. 4.0.3)[54].
Solid points indicate mean ± s.d. of three technical replicates. […] Cross-bars indicate mean ± s.d. of three independent experiments (two with technical triplicates, one with technical duplicates); values obtained in each experiment are represented by different shapes. c, Viability […] Solid points indicate mean ± s.d. of three technical replicates. d, Corresponding IC50 values of MMAF. Cross-bars indicate mean ± s.d. of four independent experiments, each with technical triplicates; each experiment is represented by a different shape. e, E. coli Top10 viability in the presence of different concentrations of kanamycin A monosulphate (0–3.5 μg/mL) and B12Br12^2− (0–1,000 μM) in LB broth at 37 °C; data are mean ± s.d. of triplicate measurements. Source data

| Compound | Et transport efficiency [1] | Et ([1]; Fig.2 d, per analyte (cargo)) | Ymax (%) maximal activity, transport of cargo [1] [%] | EC50 [1] [µM] | Et [1] | other results |
| --- | --- | --- | --- | --- | --- | --- |
| CC(=O)OCC[N+](C)(C)C [Acetylcholine, acetylcholine] | 7.0 | 7 | 75 | 13.8 | – | – |
| CC1(C)S[C@@H]2[C@H](NC(=O)[C@H](N)c3ccccc3)C(=O)N2[C@H]1C(=O)O [Ampicillin, ampicillin, reference compound] | 4.5 | – | 74 | 63 | 4.5 | – |
| CC[C@H](C)[C@@H]([C@@H](CC(=O)N1CCC[C@H]1[C@H](OC)[C@@H](C)C(=O)N[C@@H](Cc1ccccc1)C(=O)O)OC)N(C)C(=O)[C@@H](NC(=O)[C@@H](NC)C(C)C)C(C)C [MMAF, monomethyl auristatin F] (HELM PEPTIDE1{[meV].V.[CC[C@H](C)[C@@H]([C@@H](CC(=O)[*:2])OC)N(C)[*:1]].[CO[C@H]([C@@H](C)C(=O)[*:2])[C@@H]1CCCN1[*:1]].F}$$$$V2.0) | – | – | – | – | – | mean_viability ([2]; MMAF 39.0625 nM): 103.936; percent_viability ([2]; MMAF 39.0625 nM, cluster 0, technical replicate 1): 103.03; percent_viability ([2]; MMAF 39.0625 nM, cluster 0, technical replicate 2): 107.013; percent_viability ([2]; MMAF 39.0625 nM, cluster 0, technical replicate 3): 101.765; mean_viability ([2]; MMAF 78.125 nM): 83.7598; percent_viability ([2]; MMAF 78.125 nM, cluster 0, technical replicate 1): 94.8234; IC50 ([2]; cluster 0, 3 h in DMEM + 21 h medium, experiment_2, read-out: IC50): 1210 nM; IC50 ([2]; cluster 0, 3 h in DMEM + 21 h medium, experiment_3, read-out: IC50): 1290 nM; IC50 ([2]; cluster 0, 3 h in DMEM + 21 h medium, experiment_4, read-out: IC50): 1410 nM; IC50 ([2]; cluster 0, 3 h in DMEM + 21 h medium, mean of four independent experiments, read-out: mean_IC50): 1210 nM; IC50 ([2]; cluster 5 µM as printed, 3 h in DMEM + 21 h medium, experiment_1, read-out: IC50): 512 nM; IC50 ([2]; cluster 5 µM as printed, 3 h in DMEM + 21 h medium, experiment_2, read-out: IC50): 709 nM; IC50 ([2]; cluster 5 µM as printed, 3 h in DMEM + 21 h medium, experiment_3, read-out: IC50): 905 nM; IC50 ([2]; cluster 5 µM as printed, 3 h in DMEM + 21 h medium, experiment_4, read-out: IC50): 870 nM; IC50 ([2]; cluster 10 µM as printed, 3 h in DMEM + 21 h medium, experiment_1, read-out: IC50): 467 nM; IC50 ([2]; cluster 10 µM as printed, 3 h in DMEM + 21 h medium, experiment_2, read-out: IC50): 568 nM; IC50 ([2]; cluster 10 µM as printed, 3 h in DMEM + 21 h medium, experiment_3, read-out: IC50): 660 nM; IC50 ([2]; cluster 10 µM as printed, 3 h in DMEM + 21 h medium, experiment_4, read-out: IC50): 583 nM; IC50 ([2]; cluster (B12Br12^2−) 5 mM as printed, 3 h in DMEM + 21 h medium, mean of four independent experiments, read-out: mean_IC50): 749 nM; IC50 ([2]; cluster (B12Br12^2−) 10 mM as printed, 3 h in DMEM + 21 h medium, mean of four independent experiments, read-out: mean_IC50): 569 nM |
| N[C@@H](Cc1ccccc1)C(=O)O [Phenylalanine] | 0.5 ± 0.2 | 0.5 | 10 ± 4 | 109 | – | – |
| CNC(=C[N+](=O)[O-])NCCSCc1ccc(CN(C)C)o1 [Ranitidine, reference compound] | 3.9 | 3.9 | 70 | 75.9 | – | – |
| N[C@@H](Cc1c[nH]c2ccccc12)C(=O)O [Tryptophan] | 9.6 | – | 72 | 2.4 | 9.6 | – |
| CC(=O)O[C@H]1C[C@@H]2CC[C@@H]3[C@H](CC[C@@]4(C)[C@H]3C[C@H]([N+]3(C)CCCCC3)[C@@H]4OC(C)=O)[C@@]2(C)C[C@@H]1N1CCCCC1 [Vecuronium, reference compound] | 3.5 | – | 64 | 50.6 | 3.5 | – |
| Cc1ncc(C[n+]2csc(CCO)c2C)c(N)n1 [Vitamin B1] | 6.5 | 6.5 | 73 | 16.6 | – | – |
| phalloidin [reference compound] | 2.3 ± 0.3 | – | 90 ± 10 | 310 ± 70 | 2.3 | – |
| protamine | 10.0 | 10 | 76 | 2.4 | – | – |

Source: PMC8942850, “Boron clusters as broadband membrane carriers” (Nature, 2022)
